Target: T1, human FSH receptor (Homo sapiens, UniProt P23945)
T1 construct: expressed in transfected cells; host or cells: CHO (Chinese Hamster Ovary) cells, stably transfected, cotransfected with CRE-luciferase reporter
T1 sequence (P23945 18-695): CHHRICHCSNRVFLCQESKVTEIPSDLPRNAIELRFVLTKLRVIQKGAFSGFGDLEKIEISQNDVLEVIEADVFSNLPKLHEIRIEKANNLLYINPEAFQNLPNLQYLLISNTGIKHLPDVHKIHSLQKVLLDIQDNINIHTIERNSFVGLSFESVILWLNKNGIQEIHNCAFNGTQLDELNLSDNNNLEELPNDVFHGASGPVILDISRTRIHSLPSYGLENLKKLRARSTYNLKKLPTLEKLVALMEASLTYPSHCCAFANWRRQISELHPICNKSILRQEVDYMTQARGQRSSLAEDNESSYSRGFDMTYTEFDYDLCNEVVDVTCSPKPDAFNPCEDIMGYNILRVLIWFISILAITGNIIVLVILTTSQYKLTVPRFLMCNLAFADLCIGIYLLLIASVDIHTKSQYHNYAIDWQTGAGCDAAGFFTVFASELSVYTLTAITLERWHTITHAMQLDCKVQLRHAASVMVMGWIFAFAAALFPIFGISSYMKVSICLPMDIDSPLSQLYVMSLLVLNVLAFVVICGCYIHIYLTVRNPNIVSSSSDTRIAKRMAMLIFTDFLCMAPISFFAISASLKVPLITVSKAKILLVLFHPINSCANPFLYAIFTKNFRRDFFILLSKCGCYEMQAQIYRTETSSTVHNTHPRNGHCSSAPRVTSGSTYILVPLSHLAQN
Assay: Agonistic activity at the human FSH receptor expressed in CHO cells (CRE-luciferase reporter)
Format: cell-based
Conditions: CHO cells stably transfected with human FSH receptor and CRE/luciferase reporter; 4 hours incubation; pEC50 is -log EC50
Description: The term EC50 means the concentration of the test compound that elicits half-maximal (50%) stimulation compared to the compound's maximally attainable effect. pEC50 is the negative log of EC50. The values can be determined e.g. in a cell line transfected with a FSH receptor gene and cotransfected with a cAMP responsive element/promoter directing the expression of a reporter gene. For the determination a software program such as MathIQ (version 2.0, ID Business Solutions Limited) can be used.
Agonistic activity of the compounds at the human FSH receptor was determined in Chinese Hamster Ovary (CHO) cells stably transfected with the human FSH receptor and cotransfected with a cAMP responsive element (CRE)/promotor directing the expression of a firefly luciferase reporter gene. Binding of the compounds to the Gs protein-coupled FSH receptor will result in an increase of cAMP, which in turn will induce an increased transactivation of the luciferase reporter. Cells (7,500 cells/well of a 384 well plate) were incubated in Dulbecco' minimal essential F12 modified medium (Invitrogen), supplemented with 1 μg/ml bovine insulin, 5 μg/ml human apo-transferrin, 80 U/ml penicillin G and 80 μg/ml streptomycin with the test compounds (concentration between 0.0316 nM and 10.0 μM) in duplicate in a humidified atmosphere (95%) at 5-7% CO2 and 37° C. The final concentration of DMSO was 1%. After 4 hours of incubation, plates were allowed to adjust to room temperature for 1 hour. Then, Luclite (PerkinElmer) solution was added to the wells and cells were allowed to lyse for at least 1 hour at room temperature. Subsequently, luciferase activity was measured in a luminescence counter. The signal is expressed as counts per second (cps). The EC50 (concentration of the test compound that elicits half-maximal (50%) luciferase stimulation compared to the compound's maximally attainable effect) and efficacy values (maximal effect of the test compound as percentage of the maximal effect of recombinant human FSH) of the compounds were determined using the software program MathIQ (version 2.0, ID Business Solutions Limited). pEC50 data (pEC50 is −log EC50) are indicated at the synthesis examples.

SMILES	hFSHRago (CHO luc) pEC50
COc1cc2c(cc1-c1cccnc1)-c1c(-c3cncs3)c3c(n1CC2)C(=O)N(C(C)(C)C)CCCC3 [Compound 11j, 9-tert-butyl-3-methoxy-2-pyridin-3-yl-14-(1,3-thiazol-5-yl)-5,6,10,11,12,13-hexahydroazocino[4′,3′:4,5]pyrrolo[2,1-a]isoquinolin-8(9H)-one]	8.51

Same assay, conditions: CHO cells stably transfected with human FSH receptor and CRE/luciferase reporter; 4 hours incubation; pEC50 is -log EC50; read-out: hFSHRago (CHO luc) pEC50 (converted)

SMILES	EC50 [nM]
COc1cc2c(cc1-c1c(C)nn(C)c1C)-c1c(-c3cccs3)c3c(n1CC2)C(=O)N(C(C)C)CCN(C(=O)C(C)C)C3 [Compound 10s, 12-isobutyryl-9-isopropyl-3-methoxy-14-(2-thienyl)-2-(1,3,5-trimethyl-1H-pyrazol-4-yl)-5,6,10,11,12,13-hexahydro[1,4]diazocino[6′,7′:4,5]pyrrolo[2,1-a]isoquinolin-8(9H)-one]	5010
CC[S+]([O-])c1cc2c(cc1OC)CCn1c3c(c(Br)c1-2)CCCCN(C(C)(C)C)C3=O (stereo not drawn) [Compound 23d, 9-tert-butyl-14-bromo-2-ethylsulfinyl-3-methoxy-5,6,10,11,12,13-hexahydroazocino[4′,3′:4,5]pyrrolo[2,1-a]isoquinolin-8(9H)-one]	245
COc1cc2c(cc1C(=O)CC[C@@H](O)CO)-c1c(-c3cccs3)c3c(n1CC2)C(=O)N(C(C)(C)C)CCCC3 [Compound 28b, (R)-9-tert-butyl-2-(4,5-dihydroxypentanoyl)-3-methoxy-14-(thiophen-2-yl)-5,6,10,11,12,13-hexahydroazocino[4′,3′:4,5]pyrrolo[2,1-a]isoquinolin-8(9H)-one]	2.63
COc1cc2c(cc1OC(C)C)-c1c(-c3ccc(F)cc3)c3c(n1CC2)C(=O)N(C(C)(C)C)CCOC3 [Compound 18g]	20
COc1cc2c(cc1-c1cccnc1)-c1c(-c3cncs3)c3c(n1CC2)C(=O)N(C(C)(C)C)CCCC3 [Compound 17k, 9-tert-butyl-3-methoxy-2-pyridin-3-yl-14-(1,3-thiazol-5-yl)-5,6,10,11,12,13-hexahydroazocino[4′,3′:4,5]pyrrolo[2,1-a]isoquinolin-8(9H)-one]	0.355
COc1cc2c(cc1C(=O)NCC(O)CO)-c1c(-c3cccs3)c3c(n1CC2)C(=O)N(C(C)(C)C)CCCC3 (stereo not drawn) [Compound 26c5, 9-tert-butyl-3-methoxy-2-(2,3-dihydroxy-1-propylaminocarbonyl)-14-(thiophen-2-yl)-5,6,10,11,12,13-hexahydroazocino[4′,3′:4,5]pyrrolo[2,1-a]isoquinolin-8(9H)-one]	0.871
COCC(O)CNC(=O)c1cc2c(cc1OC)CCn1c3c(c(-c4cccs4)c1-2)CCCCN(C(C)(C)C)C3=O (stereo not drawn) [Compound 26c6, 9-tert-butyl-3-methoxy-2-(2-hydroxy-3-methoxy-1-propylaminocarbonyl)-14-(thiophen-2-yl)-5,6,10,11,12,13-hexahydroazocino[4′,3′:4,5]pyrrolo[2,1-a]isoquinolin-8(9H)-one]	1.07
COc1cc2c(cc1-n1cc(C[C@H](O)CO)nn1)-c1c(-c3cccs3)c3c(n1CC2)C(=O)N(C(C)(C)C)CCCC3 [Compound 20f, (S)-9-tert-butyl-14-(thien-2-yl)-2-(4-(2,3-dihydroxypropyl)-1H-1,2,3-triazol-1-yl)-3-methoxy-5,6,10,11,12,13-hexahydroazocino[4′,3′:4,5]pyrrolo[2,1-a]isoquinolin-8(9H)-one]	4.07
COc1cc2c(cc1-c1cccnc1)-c1c(Cl)c3c(n1CC2)C(=O)N(C(C)(C)C)CCCC3 [Compound 19f, 9-tert-butyl-3-methoxy-2-pyridin-3-yl-14-chloro-5,6,10,11,12,13-hexahydroazocino[4′,3′:4,5]pyrrolo[2,1-a]isoquinolin-8(9H)-one]	12.3
COc1cc2c(cc1CCCO)-c1c(-c3cccs3)c3c(n1CC2)C(=O)N(C(C)(C)C)CCCC3 [Compound 21j, 3-(9-tert-butyl-14-(thien-2-yl)-3-methoxy-5,6,10,11,12,13-hexahydroazocino[4′,3′:4,5]pyrrolo[2,1-a]isoquinolin-8(9H)-on-2-yl)propan-1-ol]	0.251
COc1cc2c(cc1-c1ncco1)-c1c(-c3cccs3)c3c(n1CC2)C(=O)N(C(C)C)CCN(C(=O)C(C)C)C3 [Compound 10x, 9-isopropyl-3-methoxy-12-isobutyryl-14-(2-thienyl)-2-oxazol-2-yl-5,6,10,11,12,13-hexahydro[1,4]diazocino[6′,7′:4,5]pyrrolo[2,1-a]isoquinolin-8(9H)-one]	1260
CCN1CCN(CC(=O)Nc2cc3c(cc2OC)CCn2c4c(c(-c5cccs5)c2-3)CCCCN(C(C)(C)C)C4=O)CC1 [Compound 22d, 2-(4-ethylpiperazin-1-yl)-N-(9-tert-butyl-14-(thien-2-yl)-3-methoxy-5,6,10,11,12,13-hexahydroazocino[4′,3′:4,5]pyrrolo[2,1-a]isoquinolin-8(9H)-on-2-yl)acetamide]	3.31
COc1cc2c(cc1-c1cccnc1)-c1c(-c3cccs3)c3c(n1CC2)C(=O)N(C(C)(C)C)CCC(C)(C)C3 [Compound 24k, 9-tert-butyl-12,12-dimethyl-3-methoxy-2-pyridin-3-yl-14-(2-thienyl)-5,6,10,11,12,13-hexahydroazocino[4′,3′:4,5]pyrrolo[2,1-a]isoquinolin-8(9H)-one]	389
COc1cc2c(cc1C(=O)O)-c1c(-c3cccs3)c3c(n1CC2)C(=O)N(C(C)(C)C)CCCC3 [Compound 26b, 9-tert-butyl-3-methoxy-14-(thiophen-2-yl)-5,6,10,11,12,13-hexahydroazocino[4′,3′:4,5]pyrrolo[2,1-a]isoquinolin-8(9H)-one-2-carboxylic acid]	44.7
COc1cc2c(cc1NC(=O)CN1CC(O)C1)-c1c(-c3cccs3)c3c(n1CC2)C(=O)N(C(C)(C)C)CCCC3 [Compound 22c, 2-(3-hydroxyazetidin-1-yl)-N-(9-tert-butyl-14-(thien-2-yl)-3-methoxy-5,6,10,11,12,13-hexahydroazocino[4′,3′:4,5]pyrrolo[2,1-a]isoquinolin-8(9H)-on-2-yl)acetamide]	1.26
COc1cc2c(cc1-c1cccnc1)-c1c(-c3cccs3)c3c(n1CC2)C(=O)N(C)C(C)(C)CC3 [Compound 12l, 9-methyl-2-pyidin3-yl-3-methoxy-10,10-dimethyl-13-(2-thienyl)-5,6,9,10,11,12-hexahydro-8H-azepino[4′,3′:4,5]pyrrolo[2,1-a]isoquinolin-8-one]	12
COc1cc2c(cc1NC(=O)CN(C)C)-c1c(-c3cccs3)c3c(n1CC2)C(=O)N(C(C)(C)C)CCCC3 [Compound 22b, 2-dimethylamino-N-(9-tert-butyl-14-(thien-2-yl)-3-methoxy-5,6,10,11,12,13-hexahydroazocino[4′,3′:4,5]pyrrolo[2,1-a]isoquinolin-8(9H)-on-2-yl)acetamide]	4.68
COc1cc2c(cc1-c1cccc(F)n1)-c1c(-c3cncs3)c3c(n1CC2)C(=O)N(C(C)(C)C)CCOC3 [Compound 11k, 9-tert-butyl-2-(6-fluoropyridin-2-yl)-3-methoxy-14-(1,3-thiazol-5-yl)-5,6,10,11-tetrahydro-9H-[1,4]oxazocino[7′,6′:4,5]pyrrolo[2,1-a]isoquinolin-8(13H)-one]	13.8
COc1cc2c(cc1OC(C)C)-c1c(-c3cccs3)c3c(n1CC2)C(=O)N(C(C)C)CCC3 [Compound 6f]	50.1
COc1cc2c(cc1-c1cccnc1)-c1c(-c3ncco3)c3c(n1CC2)C(=O)N(C(C)(C)C)CCC3 [Compound 13f]	15.8
